Experimental data reported in PubChem BioAssay (NCI).
Where “and” joins values, the source holds several entries; their conditions need not be identical. Equal values may be shown once.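 Compound exposure: 48 hours, 5 concentrations, 96-well plates. GI50 = concentration required for 50% inhibition of growth. TGI marks complete inhibition of growth.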

Columns and labels:
Assay in all cases: NCI-60 cell line screen, 48 h
[1] = tested on: MCF7 breast
[2] = tested on: NCI-H460 lung
[3] = tested on: DU-145 prostate
[4] = tested on: K-562 leukemia
[5] = tested on: CCRF-CEM leukemia
[6] = tested on: SR leukemia
[7] = tested on: HOP-92 NSCLC
[8] = tested on: EKVX NSCLC
[9] = tested on: OVCAR-8 ovarian
[10] = tested on: HCT-15 colon

| SMILES | GI50 [1] [µM] | TGI [1] [µM] | GI50 [2] [µM] | TGI [2] [µM] | GI50 [3] [µM] | TGI [3] [µM] | GI50 [4] [µM] | TGI [4] [µM] | GI50 [5] [µM] | TGI [5] | GI50 [6] [µM] | TGI [6] [µM] | GI50 [7] [µM] | TGI [7] [µM] | GI50 [8] [µM] | TGI [8] [µM] | GI50 [9] [µM] | TGI [9] | GI50 [10] [µM] | TGI [10] [µM] |
| --- | --- | --- | --- | --- | --- | --- | --- | --- | --- | --- | --- | --- | --- | --- | --- | --- | --- | --- | --- | --- |
| CN1CCN(c2ccc3nc(-c4ccc(OCCCCN5CCN(CCCCN6C(=O)c7cccc8cccc(c78)C6=O)CC5)cc4)[nH]c3c2)CC1 | 74.7 | > 100 | 63.4 | > 100 | 29.4 | > 100 | > 100 | > 100 | 47.8 | > 100 µM | 12.9 | > 100 | 71.4 | > 100 | > 100 | > 100 | 48.6 | > 100 µM | 35.3 | > 100 |
| NC(=O)c1ccc(N(C(N)=O)c2c(F)cccc2F)nc1-c1ccc(F)cc1F | > 100 | > 100 | > 100 | > 100 | > 100 | > 100 | > 100 | > 100 | > 100 | > 100 µM | > 100 | > 100 | 28 | > 100 |  |  | > 100 | > 100 µM | > 100 | > 100 |
| Cc1ccc(S(=O)(=O)NC(CO)C(=O)O)cc1 (stereo unspecified) |  | > 100 |  | > 100 |  | > 100 |  | > 100 |  | > 100 µM |  | > 100 |  | > 100 |  | > 100 |  | > 100 µM |  | > 100 |
| COc1cccc(NC2=C(Cl)C(=O)N(Cc3ccc(Cl)cc3)C2=O)c1 | 2.09 | > 38.8 | 2.93 | 18.5 | 3.8 | 12.1 | 0.801 | > 46.3 |  | > 68.9 µM | 0.261 |  | 13.1 | 35.4 | 12.5 | 38.8 | 1.82 | > 43.1 µM | 1.05 | 8.62 |
| CC(N1CCOCC1)C(O)(c1ccccc1)c1ccccn1 (stereo unspecified) |  | > 100 |  | > 100 |  | > 100 |  | > 100 |  |  |  | > 100 |  | > 100 |  | > 100 |  | > 100 µM |  | > 100 |
| CCN(CC)Cc1cc(Nc2c3ccccc3nc3cc(Cl)ccc23)ccc1O | 0.96 | 2.46 | 1.62 | 4.8 | 2.63 | 9.69 | 1.69 | 39 | 2.59 | > 100 µM | 3.08 | > 100 | 1.41 | 3.13 | 2.26 | 5.99 | 1.18 | 3.83 µM | 3.49 | 17 |
| CC(/C=N/N=C(N)N)=N\N=C(N)N | 19.4 | 1120 | 26.3 | 201 | 31 | 2240 | 23.1 | 785 | 18.8 | > 78.5 µM and 1300 µM | 1.95 | 333 | 54.4 | 62.5 | 61.5 | 499 | 11.6 | > 76 µM and 378 µM | > 51.4 | 2500 |
| O=C(CCCCCCCCC(=O)N/N=C\c1cc(Cl)ccc1O)N/N=C\c1cc(Cl)ccc1O | 0.364 | > 100 | 0.162 | 19.6 | 0.495 | > 100 | 0.38 | 10.2 | 0.172 | 24.6 µM | 0.0955 | 16.7 | 0.105 | 37.5 | 3.49 | > 100 | 0.231 | 28.9 µM | 0.251 | > 100 |
| C=CC(C)(O)CC/C=C(\CO)C(=O)OC1C(C)OC(O[C@](C)(C=C)CC/C=C(\CO)C(=O)O[C@H]2C[C@@]3(C(=O)OC4OC(CO)C(O)C(O)C4OC4OC(C)C(OC5OC(CO)C(O)C5O)C(OC5OC(CO)C(O)C(O)C5O)C4O)C(CC2(C)C)C2=CCC4[C@@]5(C)CC[C@H](OC6OC(COC7OC(C)C(O)C(O)C7OC7OCC(O)C(O)C7O)C(O)C(O)C6NC(C)=O)C(C)(C)C5CC[C@@]4(C)[C@]2(C)C[C@H]3O)C(O)C1O (stereo partly specified) | 0.822 | 4.1 | 3.72 | 9.79 | 0.131 | 0.512 | 7.13 | 16.7 | 0.125 | 7.55 µM | 1.59 | 15.1 | 0.0736 | 0.794 | 0.901 | 5.02 | 0.372 | 6.45 µM | 4.72 | 10.6 |
| Oc1ccc(Cl)cc1/C=N\NC(=S)N/N=C/c1cc(Cl)ccc1O | 3.82 | > 100 | 2.58 | 13.3 | 3.67 | 70 | 2.63 | > 100 | 0.468 | 12.1 µM | 1.22 | 40.9 | 1.92 | 14.7 | 3.23 | > 100 | 1.92 | 17.7 µM | 0.997 | > 100 |
| O=Cc1ccc(N2CCN(c3ccc(C=O)cc3)CC2)cc1 | 97.7 | > 100 | 77.2 | > 100 | > 100 | > 100 | > 100 | > 100 | > 100 | > 100 µM | > 100 | > 100 | > 100 | > 100 | > 100 | > 100 | > 100 | > 100 µM | > 100 | > 100 |
| O=C(/C=C/c1ccc([N+](=O)[O-])cc1)c1cccc(Nc2nc(Nc3ccccc3)nc(Nc3ccccc3)n2)c1 | 1.19 | 4.21 | 9.63 | 38 | 28.2 | > 100 | 2.89 | 28.2 | 3.85 | 25.6 µM | 0.484 | 6.92 | 0.662 | 8.5 | 22.3 | > 100 | 14 | > 100 µM | 17.7 | > 100 |
| COc1ccc(C2=Nc3c/c(=C\c4c(O)[nH]c5cc(Cl)ccc45)ccc3=N2)cc1 | 2.42 | 12.8 | 8.01 | 26.1 | 6.6 | 21.6 | 2.18 | 11.5 | 1.41 | 9.21 µM | 1.13 | 3.89 | 0.553 | 9.83 |  |  | 7.68 | 22.8 µM | 3 | 11.5 |
| O=C(O)CCc1nc(-c2ccccc2-n2cccc2)no1 |  | > 100 |  | > 100 |  | > 100 |  | > 100 |  |  |  | > 100 |  | > 100 |  | > 100 |  | > 100 µM |  | > 100 |
| Cc1cc(Nc2nc(-c3ccncc3)nc3ccccc23)n[nH]1 | 8.18 | > 100 | 6.18 | > 100 | 24.2 | > 100 | 4.99 | > 100 | 25.2 | > 100 µM | 1.72 | 47.7 | 4.39 | > 100 |  |  | 11 | > 100 µM | 1.77 | > 100 |
| O=C(C=C=Nc1ccccc1)C(=O)N=C=Cc1ccccc1 | 2.35 | 12.6 | 14.1 | 44.1 | 2.24 | 6.82 | 1.59 |  | 0.724 | > 100 µM | 0.298 | > 100 | 5.57 | 20.1 | 6.81 | 22.8 | 3.84 | 14.4 µM | 1.42 | 4.05 |
| COc1cc(Cn2c(-c3ccccc3)cc3c2-c2oncc2CC3)cc(OC)c1 | 0.307 | > 100 | 0.333 | 5.32 | 0.309 | 1.25 | 0.201 | > 100 | 0.337 | > 100 µM | 0.308 | > 40.7 | 4.11 | > 100 | 0.449 | > 100 | 0.592 | > 100 µM | 0.361 | > 100 |
| Cc1ccc(-c2n[nH]c(=O)c3noc(-c4ccc(C)cc4)c23)cc1 | 0.565 | > 100 | 0.751 | 25 | 2.82 | 15.2 | 0.383 | > 100 | 2.45 | > 100 µM | 0.441 | > 100 | 0.194 | 0.962 |  |  | 1.82 | 27.7 µM | 0.651 | > 100 |
| Nc1ccn(C2OC(C(OC3OC(CO)C(O)C(N)C3O)C(O)C(O)C(O)C(O)CO)C(N)C(O)C2O)c(=O)n1 (stereo unspecified) |  | > 100 |  | > 100 |  | > 100 |  |  |  | > 100 µM |  | > 100 |  | 24.6 |  | > 100 |  | > 100 µM |  | > 100 |
| Nc1c(C(=O)Nc2cccc3ccccc23)sc2nc3c(cc12)C(=O)CCC3 | 0.206 | > 100 | 0.165 |  | 0.337 | 8.71 | 0.131 | > 100 | 0.29 | > 100 µM | 0.38 | > 100 | 2.92 | > 100 |  |  | 0.506 | 32.1 µM | 0.262 | > 100 |
| O=C(c1ccc2ccccc2c1)c1c(C(F)(F)F)n([O-])c2ccc(F)cc2[n+]1=O | 1.43 | 3.31 | 1.83 | 3.68 | 1.68 | 3.12 |  |  | 1.6 | 5.26 µM | 0.277 | 1.49 | 1.21 | 2.95 | 1.8 | 3.35 | 0.324 | 1.21 µM | 0.354 | 1.26 |
| CC(C(N)=O)N(C)C(=O)c1cnc2ccccc2c1 (stereo unspecified) |  | > 100 |  | > 100 |  | > 100 |  | > 100 |  | > 100 µM |  | > 100 |  | > 100 |  |  |  | > 100 µM |  | > 100 |
| Cc1cc2nc(-c3c(F)cccc3Cl)n(Cc3c(F)cccc3Cl)c2cc1C | 12.8 | > 100 | 6.32 | 30.9 | 16.1 | 41.4 | 39.4 | > 100 | 2.6 | > 100 µM | 17.5 | > 100 | 14 | 33.5 |  |  | 18.9 | 46.6 µM | 13.9 | 33.3 |
| CCOC(=O)c1c(C)n(Cc2ccccc2)c2c1cc1oc(=O)c(=O)n3cnc2c13 | 17.7 | > 50 | 15.9 | > 50 | 11.8 | > 50 | 12.9 | > 50 |  |  | 7.99 | > 50 | 2.83 | 20.1 | 13 | 39.7 | 22.8 | > 50 µM | 16.2 | > 50 |
| CN(C(=O)CNC(=O)/C=C/c1cccc(Cl)c1)C1CCS(=O)(=O)CC1 | 1.03 | > 100 | 13.9 | > 100 | 0.47 | > 100 |  |  | > 100 | > 100 µM | > 100 | > 100 | > 100 | > 100 | 34.3 | > 100 | > 100 | > 100 µM | 0.819 | > 100 |
| Cc1cc2nc3c4ccc(Br)cc4n(CCN(C)C)c3nc2cc1C | 1.17 | 3.06 | 1.26 | 3.95 | 2.96 | 9.96 |  |  | 1.5 | 10.5 µM | 0.423 | 10 | 1.3 | 5.28 | 2.02 | 6.58 | 1.24 | 11.8 µM | 0.751 | 6.24 |
| O=C(Nc1nc2ccccc2s1)c1cc(-c2ccc(F)cc2)n2nc(-c3ccccc3)cc2n1 | 5.29 | > 100 |  |  | 4.95 | > 100 | 4.25 | 15.3 | 1.87 | 4.52 µM | 3.93 | 12.8 | 1.69 | 5.06 | 6.69 | > 100 |  |  |  |  |
